The experiment addresses T1, Plasma-derived (pd-) human Factor VIII (Homo sapiens, UniProt P00451).
T1 construct: from tissue; host or cells: human blood plasma (FVIII concentrate)
Put plainly: Binding of 125I-labeled pd-FVIII to peptide-coated Toyopearl resin (micro-beads assay). The following applies: for % Binding pdFVIII: peptide immobilized on Toyopearl AF-Epoxy-650M resin, 125I-pd-FVIII, 2 hours room temperature, percent of maximal achievable binding (anti-FVIII Mab 8860-coated resin), mean ± SD of four determinations. As to the method: Peptides S1 to S84 were immobilized on the Toyopearl AF-Epoxy-650M resin (Tosoh Biosep) as described by Jungbauer et al. For immobilization, 2.5 mg of each peptide was dissolved in 0.25 mL of the immobilization buffer (0.2 M sodium bicarbonate, pH 10.3), and 0.036 g of the dry resin powder (corresponding to 0.125 mL of swollen resin) was added, followed by incubation of the mixture with gentle rotation for 48 hours. Upon incubation for 48 hours the resin was washed once with immobilization buffer, once with 1 M NaCl and then 3 times with binding buffer, and binding of ^125I-labeled pd-FVIII to the peptide-coated and control resin was tested. The coupling density of each peptide in each of the reported experiments was as mentioned in Table 1. The control 0.25 mL portion of the resin was similarly treated in parallel experiment in the absence of peptide and was subsequently used as a control (designated as Background) in ^125I-pd-FVIII binding experiments. ^125I-pd-FVIII Bound/Background ratios were calculated as the amount of ^125I-pd-FVIII, bound to an immobilized peptide, divided by that bound to uncoated control resin, prepared as described above. This ratio represents a Signal/Noise ratio for the micro-beads assay, since ^125I-pd-FVIII bound to peptide represents the signal value and ^125I-pd-FVIII bound to peptide-uncoated resin represents the background (noise) value.
Plasma-derived (pd-) human Factor VIII (FVIII) was purified from concentrate by immunoaffinity chromatography on an anti-FVIII monoclonal antibody column followed by subsequent concentration of pd-FVIII by ion-exchange chromatography using Resource Q HR5/5 column.
The resin with immobilized peptides was washed in the binding buffer (0.01 M Hepes, 0.1 M NaCl, 5 mM CaCl2, 0.01% Tween-80). Subsequently, the resin was diluted in the binding buffer as 1:7 slurry and aliquoted into Eppendorf tubes (40 μL per tube). ^125I-pd-FVIII (100000 cpm in 10 μL) was added to the tubes and the volume of the mixture was adjusted to 100 μL by adding 50 μL of the binding buffer containing 4% BSA to give a 2% final concentration of BSA. After 2 hours of incubation at room temperature on a rotator, the samples were washed 4 times in the binding. After each wash the tubes were centrifuged at 5000 rpm for 1 min in an Eppendorf microcentrifuge, supernatant was discarded, and the resin was re-suspended in the washing buffer, followed by centrifugation under the same conditions. After four washes the tubes with pellet without supernatant were counted for radioactivity. The resin without peptide was processed similarly to account for non-specific pd-FVIII binding to tubes and resin itself, and the radioactivity in this control tube was considered as a background value. Since ^125I-pd-FVIII contains the some fraction damaged during radiolabeling, binding was calculated as a percent of maximal achievable binding, determined in separate experiment with anti-FVIII Mab 8860-coated resin.
All the measurements were performed in duplicates. Each experiment was performed using two independently prepared immobilized peptide samples. The data presented in each table are the mean values of the four determinations: duplicate determination in the two assays performed with beads on which peptides were independently immobilized on the different days. The value of standard deviation of the above quadruplicate determinations (duplicate determinations in two independent experiments) were typically less than 10% of the measured values of ^125I-pd-FVIII binding to peptides.

[1] abbreviates: Table 3, hexapeptides with linker cysteine within the binding sequence.
Where [2] appears, read: Table 2, peptides with C-terminal cysteine linker immobilized on Toyopearl AF-Epoxy-650M resin.

Where no end group is shown, it is not given here. [ ]: non-standard residue; d: D form. Bpa = N[C@@H](Cc1ccc(C(=O)c2ccccc2)cc1)C(=O)O; 1Nal = N[C@@H](Cc1cccc2ccccc12)C(=O)O; Bta = N[C@@H](Cc1csc2ccccc12)C(=O)O; NMeY = CN[C@@H](Cc1ccc(O)cc1)C(=O)O; Phg = N[C@H](C(=O)O)c1ccccc1; Abu = CC[C@H](N)C(=O)O

T1 sequence (P00451 20-1667 limits assumed): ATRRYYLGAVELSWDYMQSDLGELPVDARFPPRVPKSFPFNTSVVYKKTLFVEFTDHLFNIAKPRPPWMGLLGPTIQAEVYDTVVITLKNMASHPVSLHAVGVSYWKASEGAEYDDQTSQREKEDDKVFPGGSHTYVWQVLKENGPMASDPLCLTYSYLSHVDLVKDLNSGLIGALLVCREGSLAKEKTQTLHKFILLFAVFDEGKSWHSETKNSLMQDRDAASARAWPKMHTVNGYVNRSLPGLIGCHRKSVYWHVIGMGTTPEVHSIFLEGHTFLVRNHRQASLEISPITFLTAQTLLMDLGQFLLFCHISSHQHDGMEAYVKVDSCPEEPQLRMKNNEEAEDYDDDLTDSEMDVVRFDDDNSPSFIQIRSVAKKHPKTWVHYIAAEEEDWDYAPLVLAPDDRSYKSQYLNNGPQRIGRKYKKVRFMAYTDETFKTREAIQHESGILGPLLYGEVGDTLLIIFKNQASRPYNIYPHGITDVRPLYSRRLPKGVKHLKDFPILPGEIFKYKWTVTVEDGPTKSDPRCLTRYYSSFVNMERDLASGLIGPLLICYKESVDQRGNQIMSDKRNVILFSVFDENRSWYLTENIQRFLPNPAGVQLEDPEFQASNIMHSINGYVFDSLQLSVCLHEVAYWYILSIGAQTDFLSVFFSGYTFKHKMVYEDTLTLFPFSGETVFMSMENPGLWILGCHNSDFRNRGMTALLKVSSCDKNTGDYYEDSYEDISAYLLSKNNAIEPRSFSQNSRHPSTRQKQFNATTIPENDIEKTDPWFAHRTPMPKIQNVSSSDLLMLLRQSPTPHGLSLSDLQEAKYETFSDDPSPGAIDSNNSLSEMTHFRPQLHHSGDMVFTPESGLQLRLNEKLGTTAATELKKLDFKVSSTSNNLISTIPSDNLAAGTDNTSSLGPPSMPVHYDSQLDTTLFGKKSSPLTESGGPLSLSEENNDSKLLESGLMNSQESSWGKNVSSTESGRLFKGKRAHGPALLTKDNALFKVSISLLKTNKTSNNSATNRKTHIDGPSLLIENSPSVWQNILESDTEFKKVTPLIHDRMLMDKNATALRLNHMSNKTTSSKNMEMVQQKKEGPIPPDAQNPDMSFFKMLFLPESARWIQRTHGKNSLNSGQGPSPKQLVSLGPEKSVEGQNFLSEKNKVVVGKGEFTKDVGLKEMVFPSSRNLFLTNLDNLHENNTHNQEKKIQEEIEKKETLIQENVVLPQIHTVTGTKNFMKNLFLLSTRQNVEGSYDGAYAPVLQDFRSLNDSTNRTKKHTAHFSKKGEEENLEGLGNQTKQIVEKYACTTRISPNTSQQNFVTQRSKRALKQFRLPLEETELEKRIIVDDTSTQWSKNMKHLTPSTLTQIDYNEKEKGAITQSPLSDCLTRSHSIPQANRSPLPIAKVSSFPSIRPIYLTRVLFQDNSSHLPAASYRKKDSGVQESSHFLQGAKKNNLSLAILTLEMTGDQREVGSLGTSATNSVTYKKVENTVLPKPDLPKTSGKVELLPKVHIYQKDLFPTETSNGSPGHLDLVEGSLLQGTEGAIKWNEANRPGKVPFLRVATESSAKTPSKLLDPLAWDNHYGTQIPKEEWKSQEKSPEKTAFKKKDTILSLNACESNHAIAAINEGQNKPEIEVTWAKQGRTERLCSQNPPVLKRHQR
T1 sequence (P00451 1668-2351 limits assumed): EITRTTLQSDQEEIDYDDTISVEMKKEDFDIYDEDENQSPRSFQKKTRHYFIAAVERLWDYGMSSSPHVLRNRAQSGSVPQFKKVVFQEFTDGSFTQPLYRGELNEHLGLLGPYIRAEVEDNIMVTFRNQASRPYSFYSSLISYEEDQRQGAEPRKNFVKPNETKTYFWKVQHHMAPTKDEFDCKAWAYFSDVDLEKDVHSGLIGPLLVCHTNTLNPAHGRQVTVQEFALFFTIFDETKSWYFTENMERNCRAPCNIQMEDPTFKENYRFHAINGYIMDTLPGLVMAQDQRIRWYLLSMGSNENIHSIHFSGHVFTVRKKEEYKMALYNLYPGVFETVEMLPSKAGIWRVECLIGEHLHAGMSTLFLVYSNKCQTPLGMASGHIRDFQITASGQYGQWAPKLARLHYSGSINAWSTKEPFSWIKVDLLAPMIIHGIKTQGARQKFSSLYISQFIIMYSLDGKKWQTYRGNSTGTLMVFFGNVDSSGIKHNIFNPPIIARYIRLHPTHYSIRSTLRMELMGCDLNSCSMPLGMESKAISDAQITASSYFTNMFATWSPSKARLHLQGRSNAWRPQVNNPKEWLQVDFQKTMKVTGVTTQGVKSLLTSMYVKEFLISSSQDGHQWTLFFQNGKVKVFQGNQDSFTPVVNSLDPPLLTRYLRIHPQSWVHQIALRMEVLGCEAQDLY

Regarding Y-F-(N-Me)S-W-E-Y-C [S22], the “% Binding pdFVIII” value was determined as 47.6 ± 4.6%.

S-(2-Nal)-E-Bip(4,4′)-C [S63]: the “% Binding pdFVIII” value is 41.4 ± 1.2%. On to S-Bpa-E-(1-Nal)-C [S57], for which the “% Binding pdFVIII” value amounted to 35.4 ± 6.6%. For the substance S-W-E-Bpa-C [S73], the “% Binding pdFVIII” value came to 40.0 ± 2.8%.

On to Y-C-V-W-D-Y (YCVWDY) [S18], for which the “% Binding pdFVIII” value was 72.0 ± 1.2%. For the same substance, the “% Binding Factor VIII” value under setting [1] is 72%. For S-Bip(4,4′)-E-Bpa-C [S64], the “% Binding pdFVIII” value is given as 36.2 ± 1.5%. On the same count and under the same terms, next, YCS[Bpa]EY [S15]: 49.4 ± 2.2%; S-(1-Nal)-E-Bip(4,4′)-C [S62]: 38.6 ± 0.4%; S-Bpa-E-Bpa-C [S61]: 1.1 ± 3.3%. On the same count and under the same terms, next, Ac-Y-C-T-W-D-Y (Ac-YCTWDY) [S14]: 82.3 ± 1.4%; Y-homoC-S-W-E-Y [S5]: 59.7 ± 3.8%.

Turning to S-Bpa-E-Y-C [S71], the “% Binding pdFVIII” value amounted to 30.6 ± 0.4%. Take Y-Y-S-W-E-Y-C (YYSWEYC) [S68]: the “% Binding pdFVIII” value is 54.3 ± 2.1%.

As for Y-C-S-W-D-Y (YCSWDY) [S11], the “% Binding pdFVIII” value is reported as 79.9 ± 4.0%. The “% Binding Factor VIII” value under setting [1] came out at 80%.

Regarding Y-C-S-W-E-Y-NH2 (YCSWEY-NH2) [S1], the “% Binding pdFVIII” value was determined as 41.8 ± 3.2%. In the case of YHS[Bta]EYC [S78], the “% Binding pdFVIII” value is on record as 6.0 ± 0.8%.

For the substance Y-c-S-W-E-Y [S6], the “% Binding pdFVIII” value was found to be 55.8 ± 2.3%. Turning to Ac-Y-C-S-W-E-Y-NH2 (Ac-YCSWEY-NH2) [S2], the “% Binding pdFVIII” value is listed as 59.2 ± 4.6%.

c-y-e-w-s [S35]: the “% Binding pdFVIII” value amounted to 37.1 ± 1.0%.

Regarding y-e-w-s-c-y [S8], the “% Binding pdFVIII” value was 69.4 ± 6.6%. For the same substance, under setting [1], the “% Binding Factor VIII” value amounted to 69%. On to Ac-S-W-E-Y-C [S30], for which the “% Binding pdFVIII” value amounted to 42.6 ± 1.3%. In addition, under setting [2], the “% Binding Factor VIII” value amounted to 43%. Regarding EYHSWEYC [reference compound], the “% Binding Factor VIII” value under setting [2] was determined as 50%. As for Y-C-S-W-E-(N-Me)Y [S26], the “% Binding pdFVIII” value was 48.8 ± 3.1%.

As for YF[Abu]WEFC [S33], the “% Binding pdFVIII” value amounted to 53.4 ± 5.3%. Further, under setting [2], the “% Binding Factor VIII” value is reported as 53%.

For YHSWE[Phg]C [S74], the “% Binding pdFVIII” value was 34.9 ± 0.4%. As to Y-C-T-W-D-Y (YCTWDY) [S12], the “% Binding pdFVIII” value amounted to 74.2 ± 4.2%. Also, the “% Binding Factor VIII” value under setting [1] is 74%. For Y-C-S-W-E-Y (YCSWEY) [S7], the “% Binding pdFVIII” value is 64.1 ± 3.2%. Besides, the “% Binding Factor VIII” value under setting [1] was 64%. On to Y-f-S-W-E-Y-C [S34], for which the “% Binding pdFVIII” value stood at 53.6 ± 2.7%. Moreover, the “% Binding Factor VIII” value under setting [2] was 54%. y-e-w-v-c-y [S84]: the “% Binding pdFVIII” value is 77.0 ± 4.2%. Consider Ac-H-S-W-E-Y-C (Ac-HSWEYC) [S31], for which the “% Binding pdFVIII” value was found to be 48.9 ± 3.0%. Under setting [2], the “% Binding Factor VIII” value was determined as 49%.

For YHS[Bpa]E[Phg]C [S75], the “% Binding pdFVIII” value amounted to 28.1 ± 0.3%. As to Y-C-(N-Me)S-W-E-Y [S24], the “% Binding pdFVIII” value came out at 14.4 ± 0.4%. Same read-out and setting: next, S-Bpa-E-Bip(4,4′)-C [S59]: 30.9 ± 2.1%. Consider Ac-Y-H-S-W-E-Y-C (Ac-YHSWEYC) [S32], for which the “% Binding pdFVIII” value turned out to be 62.2 ± 4.4%. Moreover, the “% Binding Factor VIII” value under setting [2] worked out at 62%. Turning to Y-C-A-W-E-Y (YCAWEY) [S81], the “% Binding pdFVIII” value was found to be 72.1 ± 7.2%. Take (N-Me)Y-C-S-W-E-Y ([NMeY]CSWEY) [S69]: the “% Binding pdFVIII” value is 7.1 ± 0.7%.

Consider Y-f-S-W-(N-Me)E-Y-C [S28], for which the “% Binding pdFVIII” value was 65.1 ± 2.5%.

For Y-C-V-W-E-Y (YCVWEY) [S82], the “% Binding pdFVIII” value turned out to be 94.1 ± 4.70%. Turning to Ac-Y-C-S-W-E-Y (Ac-YCSWEY) [S9], the “% Binding pdFVIII” value stood at 81.6 ± 2.8%. Besides, under setting [1], the “% Binding Factor VIII” value turned out to be 82%. Regarding y-e-w-a-c-y [S83], the “% Binding pdFVIII” value worked out at 53.6 ± 2.5%. As for YHS[Bpa]EYC [S37], the “% Binding pdFVIII” value was determined as 39.1 ± 1.2%. S-Bta-E-Bpa-C [S65]: the “% Binding pdFVIII” value came to 39.2 ± 2.4%. Regarding Y-f-(N-Me)S-W-E-Y-C [S27], the “% Binding pdFVIII” value is given as 57.5 ± 4.6%.

With Y-C-S-W-(N-Me)E-Y [S25], the “% Binding pdFVIII” value worked out at 45.2 ± 2.5%. As to S-Bpa-E-Phe(4-Cl)-C [S60], the “% Binding pdFVIII” value is 33.9 ± 3.2%. Consider YCS[1Nal]EY [S80], for which the “% Binding pdFVIII” value came to 35.3 ± 3.0%. For the substance y-d-w-t-c-y [S13], the “% Binding pdFVIII” value is 53.8 ± 0.5%. Consider H-S-W-E-Y-C (HSWEYC) [S29], for which the “% Binding pdFVIII” value was determined as 54.4 ± 4.9%. Under setting [2], the “% Binding Factor VIII” value was 54%. As for S-Phe(4-Cl)-E--Bpa-C [S66], the “% Binding pdFVIII” value came to 40.0 ± 2.5%.

Consider S-Bpa-E-(2-Nal)-C [S58], for which the “% Binding pdFVIII” value is 42.0 ± 5.3%.

Consider YH[Abu]WDYC [S39], for which the “% Binding pdFVIII” value is listed as 46.4 ± 0.8%. Still for that read-out and setting: next, S-Bpa-E-Phg-C [S72]: 41.3 ± 1.4%. (N-Me)S-W-E-Y-C [S21]: the “% Binding pdFVIII” value is on record as 48.4 ± 3.7%.

With Y-H-S-Phe(3,4-Cl)-E-Y-C [S77], the “% Binding pdFVIII” value was 34.4 ± 3.2%. As to Y-C-S-(N-Me)W-E-Y [S70], the “% Binding pdFVIII” value is 72.2 ± 1.7%. As to Ac-Y-C-T-W-D-Y-NH2 (Ac-YCTWDY-NH2) [S4], the “% Binding pdFVIII” value is given as 58.5 ± 2.4%. As to Y-C-T-W-D-Y-NH2 (YCTWDY-NH2) [S3], the “% Binding pdFVIII” value is reported as 42.3 ± 4.3%.

As for Y-W-E-Y-C [S79], the “% Binding pdFVIII” value was determined as 47.7 ± 0.45%. With y-d-w-a-c-y [S17], the “% Binding pdFVIII” value is 75.1 ± 0.6%. Also, under setting [1], the “% Binding Factor VIII” value is reported as 75%. For Y-C-T-W-E-Y (YCTWEY) [S10], the “% Binding pdFVIII” value is reported as 80.3 ± 1.3%. Further, the “% Binding Factor VIII” value under setting [1] amounted to 80%. Take Y-H-V-W-E-Y-C (YHVWEYC) [S76]: the “% Binding pdFVIII” value is recorded as 26.6 ± 1.3%.

Take S-Phe(3,4-Cl)-E-Bpa-C [S67]: the “% Binding pdFVIII” value was 47.7 ± 0.0%. For the substance Y-C-A-W-D-Y (YCAWDY) [S16], the “% Binding pdFVIII” value worked out at 72.0 ± 15.5%. For the same substance, the “% Binding Factor VIII” value under setting [1] is 72%.

Consider Y-F-S-W-(N-Me)E-Y-C [S23], for which the “% Binding pdFVIII” value is given as 53.1 ± 0.3%.

As for y-d-w-v-c-y [S19], the “% Binding pdFVIII” value is recorded as 73.4 ± 5.6%. Also, the “% Binding Factor VIII” value under setting [1] is reported as 73%.

(Values after US20100099113A1, “MINIMIZED SMALL PEPTIDES WITH HIGH AFFINITY FOR FACTOR VIII AND FACTOR VIII-LIKE PROTEINS” (Technische Universitat Muenchen, priority 2006, published 2010).)
